Source: patent US20110034335A1, “Treatment of Ornamental Plants” (priority 2009, published 2011)

Assays:
Format in all cases: in vivo
[1] = system: Campanula; assay: Spray with 1-MCP solutions without surfactant, ethylene challenge (Example 3)
Protocol: (§1) Spray applications were made using (unless otherwise noted) AFxRD-038 powder containing 3.8% active ingredient, i.e. 1-MCP, and also containing dextrose, alpha-cyclodextrin, and amino acid salt. Rates listed are for active ingredient e.g. 5 mg active ingredient per liter. Sprayed liquid contained (unless otherwise noted) AFxRD-038 powder added to water. AFxRD-038 powder was obtained from AgroFresh Inc. The water used (unless otherwise noted) was tap water. Applications were done in 500 ml spray bottles at rates typical for growth regulators applications in the ornamental industry i.e., 200 ml per square meter. Spraying was done within 5-15 minutes of mixing the formulation. Plants were allowed to dry for 1-4 hours before being challenged with ethylene (2 ppm for about 16 hours at ambient temperatures).
Bud wilting and flower abscission (%) of Campanula (in pots) sprayed with 1-MCP solutions without a surfactant, and challenged with ethylene. We observed the percent of plants on which one or more buds or one or more flowers underwent wilting or abscission or both.

[2] = system: Dianthus (mixed); assay: Racks of flowering plants sprayed, truck 14 hours, ethylene challenge (Example 8); settings: 25 mg/L, 200 ml/square meter, scale 0 (poor) to 2 (good)
Protocol: as §1
(§2) Racks of flowers were sprayed with spray liquid containing 25 mg/L at rate of 200 ml/square meter. Racks were then placed into a full enclosed truck (length 7.3 meter) for 14 hours. Plants were then challenged with ethylene and evaluated 3 and 7 days later, using a rating scale from 0 (poor) to 2 (good). […]

[3] = system: Snapdragon (yellow); assay: as above; settings: 25 mg/L, 200 ml/square meter, scale 0 (poor) to 2 (good)
Protocol: as §1, §2

[4] = system: Verbena “babylon Red”; assay: as above; settings: 25 mg/L, 200 ml/square meter, scale 0 (poor) to 2 (good)
Protocol: as §1, §2

[5] = system: Callibrachoa “Cherry Blossom”; assay: as above; settings: 25 mg/L, 200 ml/square meter, scale 0 (poor) to 2 (good)
Protocol: as §1, §2

[6] = system: Petunia “Royal Velvet”; assay: as above; settings: 25 mg/L, 200 ml/square meter, scale 0 (poor) to 2 (good)
Protocol: as §1, §2

[7] = system: Impatiens (double pink); assay: as above; settings: 25 mg/L, 200 ml/square meter, scale 0 (poor) to 2 (good)
Protocol: as §1, §2

[8] = system: Dianthus “Ideal White”; assay: as above; settings: 25 mg/L, 200 ml/square meter, scale 0 (poor) to 2 (good)
Protocol: as §1, §2

[9] = system: Impatiens (light pink); assay: as above; settings: 25 mg/L, 200 ml/square meter, scale 0 (poor) to 2 (good)
Protocol: as §1, §2

[10] = system: Impatiens (dark pink); assay: as above; settings: 25 mg/L, 200 ml/square meter, scale 0 (poor) to 2 (good)
Protocol: as §1, §2

[11] = system: Impatiens; assay: Shelf life after low-concentration spray (Example 9); settings: EthylBloc powder in distilled water
Text: (§3) Spray liquid was EthylBloc™ powder (contains 0.14% by weight 1-MCP, plus alpha-cyclodextrin and dextrose, obtained from Floralife Inc.) in distilled water. The shelf lives of sprayed and non-sprayed control plants were observed, with the following results: […]

[12] = system: Geranium; assay: as above; settings: EthylBloc powder in distilled water
Text: as §3

[13] = system: New Guinea Impatiens; assay: as above; settings: EthylBloc powder in distilled water
Text: as §3

[14] = system: nursery plants; assay: Nursery plants, reassessment after 4 weeks in greenhouse (Example 10); settings: 50 mg/L of 1-MCP; after 4 weeks in a greenhouse
Protocol: A range of nursery plants that often show quality problems during shipping were chosen including Datura (tropical), Mini-rose, Delphinium (sun perennial), Verbena (sun perennial), Asclepias (sun perennial), Delosperma (groundcover), Myosotis (shade perennial) and Primula (shade perennial).
Spray liquid had 50 mg/L of 1-MCP. Sprayed and unsprayed control plants, all of which were blooming, were packed in boxes according to standard procedures and shipped under commercial conditions. After 5 days plants were unpacked and given a quality rating, from 0 (poor) to 2 (good). Results were as follows:
After the above observations, the plants were placed in a greenhouse for 4 weeks and assessed again.

[15] = system: ‘Hark’ Phalaenopsis orchids; assay: Spray with 1-MCP solutions with or without Silwet L-77, ethylene challenge (Example 7)
Protocol: as §1
(§4) Surfactant Silwet™ L-77 (called “surf” below) was sometimes included to evaluate the effect of surfactant on efficacy. Silwet™ L-77 was used in the form of a pure liquid. The amounts shown below as “ml/L” refer to milliliters of pure Silwet™ L-77 per liter of liquid CP composition.
Percent of plants showing one or more of flower wilting, bud wilting, and drop on ‘Hark’ Phalaenopsis orchids (in pots) sprayed with 1-MCP solutions with or without Silwet™ L-77 surfactant and challenged with ethylene.

[16] = system: Petunia; assay: Spray with 1-MCP solutions with or without Silwet L-77, ethylene challenge (Example 6)
Protocol: as §1, §4
Bud wilting (%) of Petunia (in six-pack trays) sprayed with 1-MCP solutions with or without Silwet™ L-77 surfactant and challenged with ethylene.

[17] = 1-MCP 5 mg/L, surf 0 ml/L, Day 5
[18] = 1-MCP 10 mg/L, surf 0 ml/L, Day 5

CC1=CC1 [1-MCP, 1-methylcyclopropene]
Bud Wilting and/or Flower Abscission (%) ([1]; 1-MCP 5 mg/L, Day 1): 21%
Bud Wilting and/or Flower Abscission (%) ([1]; 1-MCP 5 mg/L, Day 7): 25%
Bud Wilting and/or Flower Abscission (%) ([1]; 1-MCP 10 mg/L, Day 1): 45%
Bud Wilting and/or Flower Abscission (%) ([1]; 1-MCP 10 mg/L, Day 7): 52%
Bud Wilting and/or Flower Abscission (%) ([1]; 1-MCP 25 mg/L, Day 1): 38%
Bud Wilting and/or Flower Abscission (%) ([1]; 1-MCP 25 mg/L, Day 7): 59%
Bud Wilting and/or Flower Abscission (%) ([1]; 1-MCP 50 mg/L, Day 1): 38%
Bud Wilting and/or Flower Abscission (%) ([1]; 1-MCP 50 mg/L, Day 7): 57%
rating, Sprayed ([2]; Day 3): 0.58 a
rating, Sprayed ([2]; Day 7): 0.25 a
rating, Sprayed ([3]; Day 3): 0.83 a
rating, Sprayed ([3]; Day 7): 0.58 a
rating, Sprayed ([4]; Day 3): 0.58 a
rating, Sprayed ([4]; Day 7): 0.19 a
rating, Sprayed ([5]; Day 3): 1.00 a
rating, Sprayed ([5]; Day 7): 1.00 a
rating, Sprayed ([6]; Day 3): 1.00 a
rating, Sprayed ([6]; Day 7): 0.38 a
rating, Sprayed ([7]; Day 3): 1.00 a
rating, Sprayed ([7]; Day 7): 0.58 a
rating, Sprayed ([8]; Day 3): 0.92 a
rating, Sprayed ([8]; Day 7): 1.00 a
rating, Sprayed ([9]; Day 3): 1.00 a
rating, Sprayed ([9]; Day 7): 1.00 a
rating, Sprayed ([10]; Day 3): 1.00 a
rating, Sprayed ([10]; Day 7): 0.83 a
Shelf Life ([11]; 1-MCP 0.03 mg/L): 3 days
Shelf Life ([11]; 1-MCP 0.32 mg/L): 5 days
Shelf Life ([12]; 1-MCP 0.03 mg/L): 3 days
Shelf Life ([12]; 1-MCP 0.32 mg/L): 4 days
Shelf Life ([13]; 1-MCP 0.03 mg/L): 4 days
Shelf Life ([13]; 1-MCP 0.32 mg/L): 7 days
assessment of sprayed plants vs control [14]: typically larger, greener, and healthier
flower wilt, bud wilt, and/or drop (%) ([15]; 1-MCP 5 mg/L, surf 0 ml/L, Day 0): 0 a %
flower wilt, bud wilt, and/or drop (%) [15, 17]: 1.8%
flower wilt, bud wilt, and/or drop (%) ([15]; 1-MCP 5 mg/L, surf 0 ml/L, Day 10): 1.8%
flower wilt, bud wilt, and/or drop (%) ([15]; 1-MCP 5 mg/L, surf 0 ml/L, Day 15): 1.8%
flower wilt, bud wilt, and/or drop (%) ([15]; 1-MCP 10 mg/L, surf 0 ml/L, Day 0): 0 a %
flower wilt, bud wilt, and/or drop (%) [15, 18]: 2.9%
flower wilt, bud wilt, and/or drop (%) ([15]; 1-MCP 10 mg/L, surf 0 ml/L, Day 10): 2.9%
flower wilt, bud wilt, and/or drop (%) ([15]; 1-MCP 10 mg/L, surf 0 ml/L, Day 15): 2.9%
flower wilt, bud wilt, and/or drop (%) ([15]; 1-MCP 25 mg/L, surf 0 ml/L, Day 0): 0 a %
flower wilt, bud wilt, and/or drop (%) ([15]; 1-MCP 25 mg/L, surf 0 ml/L, Day 5): 0%
flower wilt, bud wilt, and/or drop (%) ([15]; 1-MCP 25 mg/L, surf 0 ml/L, Day 10): 0%
flower wilt, bud wilt, and/or drop (%) ([15]; 1-MCP 25 mg/L, surf 0 ml/L, Day 15): 0%
flower wilt, bud wilt, and/or drop (%) ([15]; 1-MCP 50 mg/L, surf 0 ml/L, Day 0): 0 a %
flower wilt, bud wilt, and/or drop (%) ([15]; 1-MCP 50 mg/L, surf 0 ml/L, Day 5): 1.8%
flower wilt, bud wilt, and/or drop (%) ([15]; 1-MCP 50 mg/L, surf 0 ml/L, Day 10): 1.8%
flower wilt, bud wilt, and/or drop (%) ([15]; 1-MCP 50 mg/L, surf 0 ml/L, Day 15): 1.8%
flower wilt, bud wilt, and/or drop (%) ([15]; 1-MCP 50 mg/L, surf 0.25 ml/L, Day 0): 0 a %
flower wilt, bud wilt, and/or drop (%) ([15]; 1-MCP 50 mg/L, surf 0.25 ml/L, Day 5): 0%
flower wilt, bud wilt, and/or drop (%) ([15]; 1-MCP 50 mg/L, surf 0.25 ml/L, Day 10): 0%
flower wilt, bud wilt, and/or drop (%) ([15]; 1-MCP 50 mg/L, surf 0.25 ml/L, Day 15): 0%
Bud Wilting (%) ([16]; 1-MCP 1 mg/L, surf 0 ml/L, Day 5): 89%
Bud Wilting (%) ([16]; 1-MCP 1 mg/L, surf 0 ml/L, Day 9): 93%
Bud Wilting (%) ([16]; 1-MCP 1 mg/L, surf 0.25 ml/L, Day 5): 76%
Bud Wilting (%) ([16]; 1-MCP 1 mg/L, surf 0.25 ml/L, Day 9): 93%
Bud Wilting (%) ([16]; 1-MCP 2.5 mg/L, surf 0 ml/L, Day 5): 74%
Bud Wilting (%) ([16]; 1-MCP 2.5 mg/L, surf 0 ml/L, Day 9): 91%
Bud Wilting (%) ([16]; 1-MCP 2.5 mg/L, surf 0.25 ml/L, Day 5): 68%
Bud Wilting (%) ([16]; 1-MCP 2.5 mg/L, surf 0.25 ml/L, Day 9): 85%
Bud Wilting (%) [16, 17]: 63%
Bud Wilting (%) ([16]; 1-MCP 5 mg/L, surf 0 ml/L, Day 9): 71%
Bud Wilting (%) ([16]; 1-MCP 5 mg/L, surf 0.25 ml/L, Day 5): 57%
Bud Wilting (%) ([16]; 1-MCP 5 mg/L, surf 0.25 ml/L, Day 9): 67%
Bud Wilting (%) [16, 18]: 34%
Bud Wilting (%) ([16]; 1-MCP 10 mg/L, surf 0 ml/L, Day 9): 52%
Bud Wilting (%) ([16]; 1-MCP 10 mg/L, surf 0.25 ml/L, Day 5): 37%
Bud Wilting (%) ([16]; 1-MCP 10 mg/L, surf 0.25 ml/L, Day 9): 50%
